The procedure of series [1]: Cohort 1 received 50 mg of each dipeptide in 300 mL water. Cohort 2 received 100 mL Peptamen first, then 50 mg of each dipeptide in 150 mL water, followed by another 50 mL water. All drinks were taken within a minute. Cohort 3 received 100 mL Peptamen first, then a reduced dose of 5 mg of each dipeptide in 150 mL water, followed by another 50 mL water. All drinks were taken within a minute. Blood samples were collected after 15 min, 30 min, 45 min, 1 h, 2 h, 3 h, 4 h, 6 h, 8 h, 10 h, 14 h, 48 h and 72 h after dosing. Urine was collected and pooled at 0-4 h, 4-6 h, and 6-10 h, and was collected as spot urine at 48 h and 72 h after dosing.
Plasma samples were thawed on ice, mixed, and 100 µL of each sample was transferred to a 1.5 mL LoBind reaction tube. Plasma samples were precipitated after adding 200 µL of acetonitrile/methanol (10:1), and incubated on ice for 15 min. Samples were centrifuged at 16,000 g for 15 min at 4 °C. 100 µL supernatant was dried under nitrogen at 40 °C. Samples were reconstituted in 100 µL 0.1% formic acid and 5 µL was applied to the LC-MS/MS instrument.
Labelled XP dipeptides and single amino acids (P*, L*, F*) in plasma samples were quantified by LC-MS/MS using Nexera LC40 HPLC system (Shimadzu, Duisburg, Germany) coupled to an API 6500+ ™ tandem mass spectrometer (AB Sciex, Darmstadt, Germany). For chromatographic separation an ACQUITY UPLC HSS PFP Column (100 Å, 1.8 µm, 2.1 mm X 150 mm; Waters, Eschborn, Germany) protected by a SecurityGuard C18 column (4x2 mm; Phenomenex, Aschaffenburg, Germany) was used. Chromatographic separation was performed at an oven temperature of 40°C and the solvent flow rate was set to 400 µL/min. Elution was achieved by varying composition of solvent A (90% acetonitrile + methanol (6 + 1), 0.1% formic acid in H2O) and solvent B (0.1% formic acid in H2O) using following LC conditions: 0-1.4 min 0% solvent A; 1.4-10.4 min 0-50% solvent A; 10.5-12.9 min 80% solvent A; 13-15 min 0% solvent A. To decrease the introduction of debris into the MS, a valve was directed to waste at 0.1-1 min and 9.5-14.9 min.
MS detection of labelled amino acids and XP dipeptides was performed in positive mode with curtain gas set to 40, gas 1 of 50, gas 2 of 70, temperature of 500°C and an IS of 3500. Detection was achieved using MS parameters and mass transitions listed in Supplementary Table 3 .
LC-MS/MS-generated chromatograms were analyzed using Analyst 1.7.2 (Sciex, Darmstadt, Germany). The pharmacokinetics parameter AUC was calculated using GraphPad Prism version 8.0 (GraphPad Prism Software Inc., La Jolla, CA, USA). Partial AUCs were calculated manually using the trapezoidal rule.
Statistical analyses were performed using SPSS Statistics Version 28 (SPSS Inc., IBM, Chicago, IL, USA). To compare the effects between cohorts in the dipeptide resorption study the one-tailed Mann-Whitney-Test was applied. To compare the effects between enzyme supplementation and controls during the proof-of-concept study the one tailed Wilcoxon matched-pairs signed rank test was applied.

The test system of series [2] is AMYNOPEP (dipeptidyl peptidase and aminopeptidase, 1:10 enzyme ratio). In words: Tris buffer at pH 7.0 using an enzyme mixture consisting of 0.86 mg/L dipeptidyl peptidase and 8.6 mg/L aminopeptidase. The conditions noted are these: 37°C, up to 60 minutes.
The subject of series [3] is AMYNOPEP (dipeptidyl peptidase : aminopeptidase, 1:1 ratio). In words: in vitro with AMYNOPEP at an enzyme ratio of 1:1.
The subject of series [4] is gastric, pancreatic, and intestinal peptidases. In words: human gastric, pancreatic, and intestinal peptidases. Conditions: cited from earlier work.
Series [5] in a line: plasma of healthy volunteers after oral administration of SI-labelled XP dipeptides (with water or Peptamen). The conditions noted are these: human (healthy volunteers), up to 72 h.

Read-outs that look alike come from different tables or passages of the source.

Turning to `CC(C)C[C@H](N)C(=O)O` [L*, leucine], the “reduction in plasma AUC of labelled amino acid on dose reduction from 50 mg to 5 mg of each XP” value (shortened to “reduction in plasma AUC”) in series [1] (human, in vivo, po) is given as 13.2 fold.

Consider LQLQPFPQPQLPYPQPQLPYPQPQLPYPQPQPF, for which the cleaved bond result in series [2] was “L-Q, 5 min and P-Q and Q-L and P-Y and P-F, within 30 minutes and Q-L, 5 min and P-F, 5 min and P-Q, 5 min”; in series [3], “P-F”. Further, in series [4], the not cleaved result is recorded as “thought to be stable to proteolytic digestion”.

Regarding L*P*, the cleaved bond entry in series [5] is recorded as “L*-P*”.

As for `N[C@@H](Cc1ccccc1)C(=O)O` [F*, phenylalanine], in series [1] (oral XP dipeptides taken with 100 mL Peptamen, n=3 healthy volunteers per cohort, LC-MS/MS), the “reduction in plasma AUC” value was found to be 9.5 fold. For the same compound, the “SI-labelled amino acid detection in plasma after oral XP dipeptides” value in series [1] (oral, 50 mg each of F*P*, LP*, L*P* in water, n=3 healthy volunteers, HPLC-MS/MS) is “detectable”. Moreover, the “decrease in plasma AUC of labelled amino acid with Peptamen relative to water” value in series [1] (oral, 50 mg of each XP dipeptide with 100 mL Peptamen vs water, n=3 healthy volunteers per cohort, LC-MS/MS) stood at 2.1 fold.

On to F*P*, for which the cleaved bond result in series [5] is on record as “F*-P*”.

Turning to `O=C(O)[C@@H]1CCCN1` [P*, proline], the “reduction in plasma AUC” value in series [1] (human, in vivo, po) is 11.5 fold.

The record behind these values is paper PMC11522800 (Frontiers in Immunology, 2024).
